Source: US20090197859A1 (Pfizer Inc., priority 2008, published 2009)

Assays:
[1] = target: T1, cloned human 5-HT6 receptor (Homo sapiens, UniProt P50406); test: 5-HT6 Receptor Binding Assay ([3H]-LSD radioligand, SPA); settings: for inhibition at 1 µM: read-out: 5HT6 % inh @ 1 uM
T1 construct: host or cells: HeLa cells, G-418 selection, membrane preparation
Protocol: 5-HT6 Receptor Binding Assay
Hela cells containing the cloned human 5-HT6 receptor were acquired from Dr. David R. Sibley's laboratory in National Institute of Health (see Sibley, D. R., J. Neurochemistry, 66, 47-56, 1996). Cells were grown in high glucose Dulbecco's modified Eagle's medium, supplemented with L-glutamine, 0.5% sodium pyruvate, 0.3% penicillin-streptomycin, 0.025% G-418 and 5% Gibco fetal bovine serum and then were harvested, when confluent, in cold phosphate buffered saline.
Harvested intact cells were washed once in cold phosphate-buffered saline. The cells were pelleted and resuspended in 100 ml of cold 50 mM Tris, 5 mM EDTA and 5 mM EGTA, pH 7.4. Homogenization was with a Vir Tishear generator, 4 cycles for 30 seconds each at setting 50. The homogenized cells were centrifuged at […] for 10 minutes and the supernatant was removed. The pellet was resuspended in 100 ml of the above buffer and rehomogenized for 2 cycles. The rehomogenized cells were then centrifuged at […] for 10 minutes and the supernatant was removed. The combined supernatant (200 ml) was centrifuged at 23,000 RPM (80,000×g) for 1 hour in a Beckman Rotor (42.1 Ti). The membrane pellet was resuspended in […] of assay buffer containing HEPES 20 mM, MgCl2 10 mM, NaCl 150 mM, EDTA 1 mM, pH 7.4 and stored frozen in aliqouts at −70° C.
The radioligand binding assay used [^3H]-lysergic acid diethylamide (LSD). The assay was carried out in Wallac 96-well sample plates by the addition of 11 μl of the test sample at the appropriate dilution (the assay employed 11 serial concentrations of samples run in duplicate), 11 μl of radioligand, and 178 μl of a washed mixture of WGA-coated SPA beads and membranes in binding buffer. The plates were shaken for about 5 minutes and then incubated at room temperature for 1 hour. The plates were then loaded into counting cassettes and counted in a Wallac MicroBeta Trilux scintillation counter.
Binding Constant Determination may be obtained by performing serial dilutions, e.g., eleven dilutions, of test compounds into assay plates using the PE/Cetus Pro/Pette pipetter. These dilutions are followed by radioligand and the bead-membrane mixture prepared as described above. After obtaining the specifically bound cpm, the data are fit to a one-site binding model using GraphPad Prism ver. 2.0. Estimated IC50 values are converted to Ki values using the Cheng-Prusoff equation (Cheng, Y. C. et al., Biochem. Pharmacol., 22, 3099-108, 1973).

T1 sequence (P50406 whole entry): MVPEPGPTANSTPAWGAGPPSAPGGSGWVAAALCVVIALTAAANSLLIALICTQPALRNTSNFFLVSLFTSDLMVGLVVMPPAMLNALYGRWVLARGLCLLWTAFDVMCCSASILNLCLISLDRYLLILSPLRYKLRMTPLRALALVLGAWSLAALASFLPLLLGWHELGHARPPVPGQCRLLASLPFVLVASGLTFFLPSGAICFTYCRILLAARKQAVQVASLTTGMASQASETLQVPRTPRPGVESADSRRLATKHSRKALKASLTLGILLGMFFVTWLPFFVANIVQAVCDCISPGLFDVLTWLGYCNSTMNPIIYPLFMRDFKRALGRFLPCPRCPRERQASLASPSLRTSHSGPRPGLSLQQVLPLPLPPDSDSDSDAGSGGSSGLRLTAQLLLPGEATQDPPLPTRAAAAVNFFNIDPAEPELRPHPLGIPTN

Row | melting point [°C] | inhibition at 1 µM [1] [%] | inhibition at 0.3 µM ([1]; 0.3 μM (stated in cell), read-out: 5HT6 % inh @ 0.3 μM) [%] | SMILES
1 | 107.9 to 109 | 82 |  | O=C(c1cccc(N2CCCNCC2)n1)N1CCC[C@H](Oc2ccc(F)cc2)C1 [Example 39, (6-[1,4]Diazepan-1-yl-pyridin-2-yl)-[(S)-3-(4-fluoro-phenoxy)-piperidin-1-yl]-methanone]
2 | 158 to 159 | 100 |  | O=C(c1cccc(N2CCCNCC2)n1)N1CCC[C@H](Oc2ccccc2F)C1 [Example 40, (6-[1,4]Diazepan-1-yl-pyridin-2-yl)-[(S)-3-(2-fluoro-phenoxy)-piperidin-1-yl]-methanone]
3 | 157.6 to 158.2 | 94.7 |  | Cc1ccc(O[C@H]2CCCN(C(=O)c3cccc(N4CCCNCC4)n3)C2)cc1 [Example 41, (6-[1,4]Diazepan-1-yl-pyridin-2-yl)-((S)-3-p-tolyloxy-piperidin-1-yl)-methanone]
4 | 116 to 118 | 99.4 |  | Cc1cccc(O[C@H]2CCN(C(=O)c3cccc(N4CCCNCC4)n3)C2)c1 [Example 42, (6-[1,4]Diazepan-1-yl-pyridin-2-yl)-((S)-3-m-tolyloxy-pyrrolidin-1-yl)-methanone]
5 | 90 to 92 | 97.7 |  | Cc1ccc(O[C@H]2CCN(C(=O)c3cccc(N4CCCNCC4)n3)C2)cc1 [Example 43, (6-[1,4]Diazepan-1-yl-pyridin-2-yl)-((S)-3-p-tolyloxy-pyrrolidin-1-yl)-methanone]
6 | 184 to 185.6 | 99.7 |  | Cc1cccc(O[C@H]2CCCN(C(=O)c3cccc(N4CCCNCC4)n3)C2)c1 [Example 44, (6-[1,4]Diazepan-1-yl-pyridin-2-yl)-((S)-3-m-tolyloxy-piperidin-1-yl)-methanone]
7 | 118 to 119.7 | 95.4 |  | Cc1ccccc1O[C@H]1CCCN(C(=O)c2cccc(N3CCCNCC3)n2)C1 [Example 45, (6-[1,4]Diazepan-1-yl-pyridin-2-yl)-((S)-3-o-tolyloxy-piperidin-1-yl)-methanone]
8 | 158 to 160 | 86.1 |  | Cc1cccc(O[C@@H]2CCCN(C(=O)c3cccc(N4CCCNCC4)n3)C2)c1 [Example 48, (6-[1,4]Diazepan-1-yl-pyridin-2-yl)-((R)-3-m-tolyloxy-piperidin-1-yl)-methanone]
9 | 102 to 104 | 89.9 |  | Cc1ccccc1O[C@@H]1CCN(C(=O)c2cccc(N3CCCNCC3)n2)C1 [Example 49, (6-[1,4]Diazepan-1-yl-pyridin-2-yl)-((R)-3-o-tolyloxy-pyrrolidin-1-yl)-methanone]
10 | 172 to 174 | 89.6 |  | O=C(c1cccc(N2CCCNCC2)n1)N1CCC[C@@H](Oc2cccc(F)c2)C1 [Example 50, (6-[1,4]Diazepan-1-yl-pyridin-2-yl)-[(R)-3-(3-fluoro-phenoxy)-piperidin-1-yl]-methanone]
11 | 142 to 142.5 | 96.3 |  | Cc1cccc([C@H]2CCCCN2C(=O)c2cccc(N3CCN(C)CC3)n2)c1 [Example 52, [6-(4-Methyl-piperazin-1-yl)-pyridin-2-yl]-((R)-2-m-tolyl-piperidin-1-yl)-methanone]
12 | 140 | 86.4 |  | Cc1ccc(O[C@@H]2CCCN(C(=O)c3cccc(N4CCCNCC4)n3)C2)cc1 [Example 54, (6-[1,4]Diazepan-1-yl-pyridin-2-yl)-((R)-3-p-tolyloxy-piperidin-1-yl)-methanone]

The remaining lines, values behind:

Row | SMILES | melting point [°C] | inhibition at 1 µM [1] [%] | inhibition at 0.3 µM ([1]; 0.3 μM (stated in cell), read-out: 5HT6 % inh @ 0.3 μM) [%]
13 | Cc1cccc(OC2CCN(C(=O)c3cccc(C4CCN(C)C4)n3)CC2)c1 (stereo not shown) [Example 17, [6-(1-Methyl-pyrrolidin-3-yl)-pyridin-2-yl]-(4-m-tolyloxy-piperidin-1-yl)-methanone] | 89 to 90 | 96.4 | 
14 | Cc1cccc(O[C@@H]2CCN(C(=O)c3cccc(N4CCCN(C)CC4)n3)C2)c1 [Example 19, [6-(4-Methyl-[1,4]diazepan-1-yl)-pryidin-2-yl]-((R)-3-m-tolyloxy-pyrrolidin-1-yl)-methanone] | 82 to 84 | 78.5 | 
15 | CN1CCN(c2cccc(C(=O)N3CCC(c4ccccc4F)CC3)n2)CC1 [Example 20, [4-(2-Fluoro-phenyl)-piperidin-1-yl]-[6-(4-methyl-piperazin-1-yl)-pyridin-2-yl]-methanone] | 111 to 113 | 101 | 
16 | Cc1ccccc1C1=CCN(C(=O)c2cccc(N3CCN(C)CC3)n2)CC1 [Example 24, [6-(4-Methyl-piperazin-1-yl)-pyridin-2-yl]-(4-o-tolyl-3,6-dihydro-2H-pyridin-1-yl)-methanone] | 160.7 to 162.3 |  | 92
17 | O=C(c1cccc(N2CCCNCC2)n1)N1CC[C@H](Oc2ccc(F)cc2)C1 [Example 25, (6-[1,4]Diazepan-1-yl-pyridin-2-yl)-[(S)-3-(4-fluoro-phenoxy)-pyrrolidin-1-yl]-methanone] | 72 to 74 | 75.4 | 
18 | O=C(c1cccc(N2CCNCC2)n1)N1CCCCC1c1cccc(F)c1 (stereo not shown) [Example 27, [2-(3-Fluoro-phenyl)-piperidin-1-yl]-(6-piperazin-1-yl-pyridin-2-yl)-methanone] | 156.8 to 157 | 94.5 | 
19 | Cc1cccc(C2CCCCN2C(=O)c2cccc(N3CCNCC3)n2)c1 (stereo not shown) [Example 28, (6-Piperazin-1-yl-pyridin-2-yl)-(2-m-tolyl-piperidin-1-yl)-methanone] | 154.1 to 155.5 | 94.6 | 
20 | O=C(c1cccc(N2CCNCC2)n1)N1CCCCC1c1ccc(F)cc1 (stereo not shown) [Example 29, [2-(4-Fluoro-phenyl)-piperidin-1-yl]-(6-piperazin-1-yl-pyridin-2-yl)-methanone] | 102 to 103.2 | 75.1 | 
21 | O=C(c1cccc(N2CCCNCC2)n1)N1CCCCC1c1ccccc1F (stereo not shown) [Example 31, (6-[1,4]Diazepan-1-yl-pyridin-2-yl)-[2-(2-fluoro-phenyl)-piperidin-1-yl]-methanone] | 183.4 to 184 | 94.5 | 
22 | Cc1ccccc1C1CCCCN1C(=O)c1cccc(N2CCCNCC2)n1 (stereo not shown) [Example 33, (6-[1,4]Diazepan-1-yl-pyridin-2-yl)-(2-o-tolyl-piperidin-1-yl)-methanone] | 123.3 to 124 | 84.6 | 
23 | Cc1cccc(C2CCCCN2C(=O)c2cccc(N3CCCNCC3)n2)c1 (stereo not shown) [Example 34, (6-[1,4]Diazepan-1-yl-pyridin-2-yl)-(2-m-tolyl-piperidin-1-yl)-methanone] | 138.5 to 139 | 95.3 | 
24 | Cc1ccccc1O[C@H]1CCN(C(=O)c2cccc(N3CCCNCC3)n2)C1 [Example 36, (6-[1,4]Diazepan-1-yl-pyridin-2-yl)-((S)-3-o-tolyloxy-pyrrolidin-1-yl)-methanone] | 140 to 142 | 93.5 | 
25 | Cc1ccc(C2CCCCN2C(=O)c2cccc(N3CCCNCC3)n2)cc1 (stereo not shown) [Example 37, (6-[1,4]Diazepan-1-yl-pyridin-2-yl)-(2-p-tolyl-piperidin-1-yl)-methanone] | 147.9 to 148.5 | 71.6 | 
26 | O=C(c1cccc(N2CCCNCC2)n1)N1CCC[C@H](Oc2cccc(F)c2)C1 [Example 38, (6-[1,4]Diazepan-1-yl-pyridin-2-yl)-[(S)-3-(3-fluoro-phenoxy)-piperidin-1-yl]-methanone] | 96.9 to 97.5 | 99.4 | 
